Measurements reported in patent US8772235B2, “Compounds having peptides conjugated to bone targeting moieties and methods of making and using thereof” (The Governors of the University of Alberta, priority 2009, dated 2014).

Columns and labels:
[1] = Effect on plasma phosphate level in normal rats (SMCC series); format: in vivo, rat; settings: 20 IU sCT/kg equivalent, subcutaneous
Description: (§1) Pharmacodynamic response of sCT analogue was evaluated by analyzing plasma calcium concentration in the rat model. Sprague Dawley female rats weighing 230-260 g (about 6 weeks old) were purchased from Charles River, USA and housed at the University of Alberta Animal Holding Unit. All experimental protocols were approved by the Animals Ethics Committee of the University of Alberta. The rats were divided randomly into five groups of 3 animals each and the pharmacodynamic response was assessed following subcutaneous administration of the sCT or analogue equivalent to 20 IU sCT/kg body weight. Rats were anesthetized using Isoflurane inhalation anesthesia and the 200 μl blood samples were obtained in heparinized Eppendorf microtubes before drug injection. Then 100 μl of sCT or equivalent dose in 20 mM Sodium Acetate buffer pH 5 was sub cu injected and the blood samples were collected 1, 2, 3 and 4 hrs post injection from jugular vein. Blood plasma was obtained by centrifuging the samples at 5000 rpm for 10 min and collecting the supernatant. Plasma calcium level was assayed by QuantiChrom™ Calcium Assay Kit (BioAssay Systems, CA USA) and the plasma phosphate level was assayed by QuantiChrom™ Phosphate Assay Kit (BioAssay Systems, CA USA).

[2] = Circular dichroism, secondary structure of sCT, sCT-SMCC and sCT-BP; format: physicochemical; settings: 20 mM acetate buffer pH 5.0, 400 μg/mL sCT or equivalent
Description: For a more detailed analysis of the influence of BP coupling on secondary structural confirmation of sCT, the circular dichroism (CD) spectrum of sCT, sCT-SMCC and sCT-BP was measured in the 20 mM acetate buffer pH 5.0. CD spectra were obtained with a ConvCD spectrophotometer instrument. Spectra were acquired over a wavelength range of 190 to 260 nm. The N2 flow rate was set at 5 l/min. The sample cuvette was cleaned with 20 mM Sodium Acetate buffer pH 5, and the spectra of test samples, which comprised of 400 μg/mL of sCT or equivalent the same buffer, were recorded with the corresponding buffer serving as blanks.

[3] = Effect on plasma calcium level in normal rats (SMCC series); format: in vivo, rat; settings: 20 IU sCT/kg equivalent, subcutaneous
Description: as §1

[4] = first hour, vs acetate buffer controls

For “Salmon calcitonin [sCT, reference compound]”, the “percentage of plasma phosphate reduction” value ([1]; 4 hour post dosing) was 14.69±3.71%, the “percentage of plasma phosphate reduction” value [1, 4] was 11.91±6.24% and the “percentage of plasma phosphate reduction” value ([1]; second hour) was 11.64±13.01%. For the same substance, the “secondary structure by CD spectrum” value [2] was “random coil conformation”, the “percentage of plasma calcium reduction” value ([3]; 4 hour post dosing) was 32.03±2.11% and the “percentage of plasma calcium reduction” value [3, 4] was 20.33±5.5%. The “percentage of plasma calcium reduction” value ([3]; second hour) was 28.98±4.65% and the “percentage of plasma calcium reduction” value ([3]; third hour) was 29.85±4.11%.
